Results as given in US11542255B2, “Sulfonylureas and sulfonylthioureas as NLRP3 inhibitors” (Inflazome Limited, priority 2017, dated 2023).
Structures can show the parent of a compound that is named as a salt.

Tests used:
[1] = target: T1, NLRP3 (Homo sapiens, UniProt Q96P20); test: THP-1 cells pyroptosis assay (LPS + nigericin, resazurin readout); format: cell-based; parameters: Seed THP-1 cells (25,000 cells/well) containing 1.0 μg/ml LPS in 40 μl of RPMI medium; host or cells: THP-1 cells; conditions: NLRP3 inhibitory activity, 1.0 μg/ml LPS, 5 μM nigericin
In short: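 LPS-primed (1 μg/ml) THP-1 cells, 25,000/well in serum-free RPMI, given compound (8-point half-log, 10 μM top; 0.1% DMSO) for 3 h at 37 °C, then nigericin 5 μM for 1 h. Viability by resazurin (100 μM, 1-2 h), Ex 560/Em 590 nm; IC50 from 4-parameter variable-slope fit.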

[2] = target: T1, NLRP3; test: Human whole blood IL1β release assay (LPS + nigericin, AlphaLisa IL-1β); format: cell-based; parameters: Human whole blood in Li-heparin tubes was obtained from healthy donors from a volunteer donor panel; from tissue; host or cells: human whole blood from healthy donors; conditions: NLRP3 inhibitory activity, 1 μg/ml LPS, 10 μM nigericin, IL-1β release, read-out: HWB IC50
In short: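 Donor human whole blood (Li-heparin) was primed with 1 μg/mL LPS while incubated with compound (8-point half-log, 10 μM top, 0.1% DMSO) for 3 h at 37° C., then stimulated with 10 μM nigericin for 1 h. Supernatant IL-1β measured by AlphaLISA; IC50 from 4-parameter nonlinear fit.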

[3] = PK protocol, intravenous administration; format: in vivo, male Sprague Dawley rats; conditions: male, Sprague Dawley, rat, plasma, dose (mg/kg); for Vd: read-out: Vdss
Procedure: (§1) Pharmacokinetic parameters were determined in male Sprague Dawley rats (Charles River, UK, 250-350 g; or Vital River Laboratory Animal Technology Co Ltd, Beijing, China, 7-9 weeks old). Animals were individually housed during the study and maintained under a 12 h light/dark cycle. Animals had free access to food and water except that some orally dosed animals were food deprived overnight prior to the study.
(§2) For intravenous administration, compounds were formulated as a solution in water or […] in 2 mL/kg dosing volume and administered via tail vein. For oral administration, compounds were formulated as a solution in water or DMSO:water [10:90] in 5 mL/kg dosing volume and administered orally.
(§3) Serial blood samples (about 120-300 μL) were taken from each animal at each of 8 time-points post dose (0.083, 0.25, 0.5, 1, 2, 4, 8 and 24 h) or at each of 12 time-points post dose (0.03, 0.1, 0.17, 0.25, 0.5, 1, 2, 4, 6, 8, 12 and 24 h) or pre-dose and at each of 9 time-points post dose (0.25, 0.5, 1, 2, 4, 6, 8, 12 and 24 h). Samples were held on ice for no longer than 30 minutes before centrifugation (10,000 rpm (8,385 g) for 3 minutes; or 5,696 rpm (3,0009 for 15 minutes) for plasma generation. Plasma was frozen on dry ice prior to boanalysis. PK parameters were generated from LC-MS/MS data using Dotmatics or Phoenix WinNonlin 6.3 software.

[4] = PK protocol, oral administration; format: in vivo, male Sprague Dawley rats; conditions: male, Sprague Dawley, plasma, rat, dose (mg/kg); for AUC / CL/F / Cmax / Tmax / half-life: po
Procedure: as §1, §2, §3

T1 sequence (Q96P20 whole entry): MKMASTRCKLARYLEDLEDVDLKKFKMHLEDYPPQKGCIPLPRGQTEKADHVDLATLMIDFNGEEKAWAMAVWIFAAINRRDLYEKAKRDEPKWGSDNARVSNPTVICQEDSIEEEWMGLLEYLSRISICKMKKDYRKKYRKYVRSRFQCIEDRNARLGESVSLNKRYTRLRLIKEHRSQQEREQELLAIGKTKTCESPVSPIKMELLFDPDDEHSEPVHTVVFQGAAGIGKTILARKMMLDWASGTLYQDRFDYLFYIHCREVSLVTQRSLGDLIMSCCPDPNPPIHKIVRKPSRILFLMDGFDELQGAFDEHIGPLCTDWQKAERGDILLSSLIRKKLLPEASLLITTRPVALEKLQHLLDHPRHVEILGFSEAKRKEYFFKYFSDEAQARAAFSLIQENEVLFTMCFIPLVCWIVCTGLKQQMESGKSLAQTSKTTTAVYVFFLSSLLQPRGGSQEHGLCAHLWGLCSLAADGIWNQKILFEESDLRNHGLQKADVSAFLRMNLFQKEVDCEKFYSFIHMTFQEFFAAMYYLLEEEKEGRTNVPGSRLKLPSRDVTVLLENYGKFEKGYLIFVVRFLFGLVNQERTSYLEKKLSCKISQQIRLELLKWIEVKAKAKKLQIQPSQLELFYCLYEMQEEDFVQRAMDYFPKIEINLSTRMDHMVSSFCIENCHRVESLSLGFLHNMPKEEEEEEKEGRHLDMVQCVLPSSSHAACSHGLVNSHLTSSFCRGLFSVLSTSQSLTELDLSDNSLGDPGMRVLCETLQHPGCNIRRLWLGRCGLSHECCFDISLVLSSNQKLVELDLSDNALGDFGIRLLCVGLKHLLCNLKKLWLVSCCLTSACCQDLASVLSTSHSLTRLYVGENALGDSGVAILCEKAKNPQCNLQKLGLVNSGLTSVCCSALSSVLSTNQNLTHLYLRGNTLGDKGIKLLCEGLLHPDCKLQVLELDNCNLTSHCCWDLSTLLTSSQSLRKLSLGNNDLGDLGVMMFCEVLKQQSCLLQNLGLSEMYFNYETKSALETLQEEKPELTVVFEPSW

Structure (SMILES) | IC50 [1] | IC50 [2] | AUC [3] | clearance [3] | half-life [3] | Vd [3] | bioavailability [4] | AUC [4] | CL/F [4] | Cmax [4] | Tmax [4] | half-life [4]
CNCc1cc(S(=O)(=O)NC(=O)Nc2c3c(cc4c2CCC4)CCC3)nn1C(C)C [Example 50, N-((1,2,3,5,6,7-Hexahydro-s-indacen-4-yl)carbamoyl)-1-isopropyl-5-((methylamino)methyl)-1H-pyrazole-3-sulfonamide] | 40 to 160 nM | 400 to 800 nM | 11400 ng·h/mL | 1.5 mL/min/kg | 3.5 h | 0.39 L/kg | 84% | 19100 ng·h/mL | 1.8 mL/min/kg | 2410 ng/mL | 1.3 h | 3.3 h
CC(C)c1cc(Cl)cc(C(C)C)c1NC(=O)NS(=O)(=O)c1cc(CN(C)C)n(C)n1 [Example 93, N-((4-Chloro-2,6-diisopropylphenyl)carbamoyl)-5-((dimethylamino)methyl)-1-methyl-1H-pyrazole-3-sulfonamide, Sodium Salt] | 40 to 160 nM | 800 to 1600 nM | 4230 ng·h/mL | 10.8 mL/min/kg | 3.3 h | 1.71 L/kg | 31.3% | 3310 ng·h/mL | 18 mL/min/kg | 1100 ng/mL | 0.36 h | –
CC(c1cc(S(=O)(=O)NC(=O)Nc2c3c(cc4c2CCC4)CCC3)nn1C)N(C)C (single isomer, unassigned; enantiomer 1) [Example 69, 5-(1-(Dimethylamino)ethyl)-N-((1,2,3,5,6,7-hexahydro-s-indacen-4-yl)carbamoyl)-1-methyl-1H-pyrazole-3-sulfonamide, Enantiomer 1] | < 40 nM | < 400 nM | – | – | – | – | – | 17000 ng·h/mL | 4.2 mL/min/kg | 7460 ng/mL | 0.38 h | 1.2 h
CC(c1cc(S(=O)(=O)NC(=O)Nc2c3c(cc4c2CCC4)CCC3)nn1C)N1CCC1 (stereo not drawn) [Example 76, 5-(1-(Azetidin-1-yl)ethyl)-N-((1,2,3,5,6,7-hexahydro-s-indacen-4-yl)carbamoyl)-1-methyl-1H-pyrazole-3-sulfonamide] | 40 to 160 nM | < 400 nM | 4900 ng·h/mL | 5.8 mL/min/kg | 3.2 h | 0.66 L/kg | 45.6% | 5650 ng·h/mL | 12.3 mL/min/kg | 2340 ng/mL | 0.5 h | 2.9 h
CN(C)Cc1cc(S(=O)(=O)NC(=O)Nc2c3c(cc4c2CCC4)CCC3)nn1C [Example 94, 5-((Dimethylamino)methyl)-N-((1,2,3,5,6,7-hexahydro-s-indacen-4-yl)carbamoyl)-1-methyl-1H-pyrazole-3-sulfonamide] | < 40 nM | < 400 nM | 4700 ng·h/mL | 3.8 mL/min/kg | 1.1 h | 0.27 L/kg | 91.6% | 12900 ng·h/mL | 4.1 mL/min/kg | 7180 ng/mL | 0.58 h | 1.5 h
CN(C)CCn1nc(S(=O)(=O)NC(=O)Nc2c3c(cc4c2CCC4)CCC3)cc1CN(C)C [Example 3, 1-(2-(Dimethylamino)ethyl)-5-((dimethylamino)methyl)-N-((1,2,3,5,6,7-hexahydro-s-indacen-4-yl)carbamoyl)-1H-pyrazole-3-sulfonamide] | < 40 nM | < 400 nM | 1130 ng·h/mL | 37 mL/min/kg | 1.3 h | 1.32 L/kg | – | – | – | – | – | –
CN(C)Cc1cc(S(=O)(=O)NC(=O)Nc2c3c(cc4c2CCC4)CCC3)nn1C1CC1 [Example 7, 1-Cyclopropyl-5-((dimethylamino)methyl)-N-((1,2,3,5,6,7-hexahydro-s-indacen-4-yl)carbamoyl)-1H-pyrazole-3-sulfonamide] | < 40 nM | 400 to 800 nM | 3480 ng·h/mL | 4.9 mL/min/kg | 1.2 h | 0.36 L/kg | 204% | 21200 ng·h/mL | 2.4 mL/min/kg | 6690 ng/mL | 1 h | 2.2 h
CC(C)N(C)Cc1cc(S(=O)(=O)NC(=O)Nc2c3c(cc4c2CCC4)CCC3)nn1C [Example 91, N-((1,2,3,5,6,7-Hexahydro-s-indacen-4-yl)carbamoyl)-5-((isopropyl(methyl)amino)methyl)-1-methyl-1H-pyrazole-3-sulfonamide] | 160 to 640 nM | 400 to 800 nM | 2620 ng·h/mL | 6.9 mL/min/kg | 4.3 h | 1.03 L/kg | – | – | – | – | – | –
